# In US12084411B2, “Hinokitiol analogues, methods of preparing and pharmaceutical compositions thereof” (The Board of Trustees of the University of Illinois, priority 2018, dated 2024):
# Marks after values point to notes of the source that are not given here.
# Tests used:
# [1] = Lipophilicity determination for small molecule iron chelates (octanol-water partition); format: physicochemical; settings: octanol-water partition coefficient
# Experimental: Concentrations of small molecule in water were determined via UV-Vis spectroscopy compared to known initial standards.
# [2] = Iron (II) binding affinity, ferrozine competition assay; settings: pH 7.0
# Experimental: (§1) Specifically, the association constant for iron (II) was determined by a ferrozine competition assay (KA of ferrozine=3.65×10^15) (60). FeCl2 (25 μM) was pre-mixed with ferrozine (75 μM) in a 25 mM MES/Tris buffer at pH=7.0 containing 62.5 mM sodium ascorbate. Then increasing concentrations of small molecule (from 40X stocks in DMSO) were added to the indicated final concentrations. The solutions were allowed to equilibrate for 24 hours before reading of the absorbance at 562 nm. […] The system was allowed to equilibrate overnight, and the absorbance corresponding to the Fe(chelator)3 complex was determined. The EC50 values for each chelator were calculated by a nonlinear curve fit (Hill1) on OriginPro by plotting the absorbance vs. concentration of titrant, and the KA for each complex was determined from the equation: KA, ligand=(KA, competitor*[EC50])/[ligand] where the ligand is the molecule originally bound to iron, and the competitor is the competing chelator.
# [3] = Iron (III) binding affinity, EDTA or citrate competition assay
# Experimental: as §1
# [4] = Electrochemical studies (cyclic voltammetry) of iron:chelator complexes; format: physicochemical; settings: Table 2
# Experimental: Potentiostatic electrochemical methods were performed on a CH Instruments electrochemical workstation (model 760 C, Austin, TX) on a three-electrode cell. Hg working electrodes were fabricated by the electrodeposition of Hg on a Pt wire utilizing the procedure previously described by Barton et al. (70). All experiments were reported versus a Ag/AgCl reference electrode and utilized a graphite auxiliary electrode. The electrolyte was sparged with UHP argon before measurements. A positive pressure of argon was maintained throughout the experiments.
# Unless otherwise indicated, experiments used a 0.1 M Tris buffer in H2O or 1:1 MeOH:H2O at pH=7.2 using HNO3 and KOH as titrant. Unless otherwise indicated, experiments used a 100 mV/s scan rate, 100 μM Fe(NO3)3, and 500 μM small molecule. All redox potentials are recorded versus a normal hydrogen electrode (NHE).
# The estimated redox potential of Fe(Hino)n was determined through extrapolation of the best-fit line of the determined redox potentials of Fe(Hino)n as a function of the concentration of MeOH in the 0.1 M Tris buffer at pH=7.2.
# [5] = Table 2, in parenthesis; not run under identical conditions; cited from earlier work
structure (smiles),measurement,setting,value
O=c1cccccc1O [Tropolene],logP Fe^III Complex,[1],−0.03
same,KA for iron (II),[2],2.3 × 10^15
same,KA for iron (III),"[3]; EDTA competition (citrate for maltol), pH 7.0",1.1 × 10^24
same,pFe^III,[3]; estimated from known pFe of EDTA (citrate for maltol),22^+
same,E^0 Aqueous,[4],39 mV vs. N.H.E.
same,E^0 1:1 MeOH:H2O,"[4]; 0.1 M Tris, pH 7.2",38 mV vs. N.H.E.
same,"E^0 Aqueous, literature value",[5],(0)** mV vs. N.H.E.
